Measured values as given in patent publication US7271168B2, “Piperazine derivatives having SST1 antagonistic activity” (Novartis AG, priority 2001, dated 2007).
Read-outs that look alike come from different tables or passages of the source.

Tests used:
mice = test: social recognition test; format: in vivo; conditions: social recognition test in mice
Protocol: Moreover when given at doses of about 0.03 to 3 mg/kg p.o. to rodents, the agents of the invention counteract electroshock-induced amnesia, increase retention performance in a passive avoidance paradigm (Mondadori et. al., Pharmacology Communications 1992, 2: 93-97) and improve social recognition (Mondadori et al., Behavioural Brain Research 1996, 77: 227-229). The compounds are therefore indicated for the treatment of cognitive disturbances and learning/memory disorders.

[1] = biological target: somatostatin receptors (sst1) (Mus musculus, UniProt P30873); test: somatostatin receptor affinity (pKd), mouse; format: binding
Sequence of somatostatin receptors (sst1) (Mus musculus, UniProt P30873) (P30873 whole entry): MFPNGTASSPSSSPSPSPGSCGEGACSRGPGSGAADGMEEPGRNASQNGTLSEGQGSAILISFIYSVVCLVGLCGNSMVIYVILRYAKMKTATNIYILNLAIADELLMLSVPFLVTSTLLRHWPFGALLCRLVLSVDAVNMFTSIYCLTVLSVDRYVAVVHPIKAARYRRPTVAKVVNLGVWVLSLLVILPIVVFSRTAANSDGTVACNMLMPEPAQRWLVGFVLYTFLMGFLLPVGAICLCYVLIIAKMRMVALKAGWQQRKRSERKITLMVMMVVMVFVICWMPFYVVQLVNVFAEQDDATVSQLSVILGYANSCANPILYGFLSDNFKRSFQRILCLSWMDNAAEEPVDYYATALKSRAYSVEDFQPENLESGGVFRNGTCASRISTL
Description: (§1) The following pKd values have been found:

[2] = biological target: T1, Somatostatin sst1 receptors (Homo sapiens, UniProt P30872); test: somatostatin receptor affinity (pKd), human; format: binding
T1 sequence (P30872 whole entry): as the sequence (P30873 whole entry) above, with A25G, C26G, S32A, A385T, S389T counted along it
Description: as §1

intruder rat = test: intruder test (intruder rat towards resident rat); format: in vivo
[3] = biological target: somatostatin receptors (sst1) (Rattus norvegicus, UniProt P28646); test: somatostatin receptor affinity (pKd), rat; format: binding
Sequence of somatostatin receptors (sst1) (Rattus norvegicus, UniProt P28646) (P28646 whole entry): as the sequence (P30873 whole entry) above, with S8P, S11T, P16S, S20G, A25V, A45S counted along it
Description: as §1

[4] = biological target: T1, Somatostatin sst1 receptors

Row | SMILES | learning/memory performance (mice) | Kd [1] | Kd [2] | duration of social contacts of the intruder rat towards the resident rat (intruder rat) | Kd [3] | Kd ([3]; rat, read-out: pKd (converted)) | selectivity among somatostatin receptors [4]
1 | CN(CCC(=O)N1CCN(c2ccc(F)c(F)c2)CC1)CCC1c2ccccc2Oc2ccccc21 [Compound A, 1-[4-(3,4-difluoro-phenyl)-piperazin-1-yl]-3-{methyl-[2-(9H-xanthen-9-yl)-ethyl]-amino}-propan-1-one] | specific enhancing effect | 3.98 to 10 nM | 1.58 to 5.01 nM | significantly increase | 0.794 nM | – | –
2 | CN(CCC(=O)N1CCN(c2ccc(F)c(F)c2)CC1)CCC1c2ccccc2-c2ccccc21 [Compound B, 1-[4-(3,4-difluoro-phenyl)-piperazin-1-yl]-3-{[2-(9H-fluoren-9-yl)-ethyl]-methyl-amino}-propan-1-one] | specific enhancing effect | 2.51 to 5.01 nM | 2.51 to 6.31 nM | significantly increase | – | 0.501 nM | sst1 selective
